Test: molar heat capacity at constant pressure
Conditions: 101.33 kPa

CCCCCCCC/C=C/CCCCCCCC(=O)OCC(COC(=O)CCCCCCC/C=C/CCCCCCCC)OC(=O)CCCCCCC/C=C/CCCCCCCC [trielaidin]
Small (less than 1 g) adiabatic calorimetry
Conditions	molar heat capacity at constant pressure [J/K/mol]
8.85 K, Metastable crystal	2.656
9.73 K, Metastable crystal	8.854
10.55 K, Metastable crystal	11.51
11.43 K, Metastable crystal	19.48
12.54 K, Metastable crystal	24.79
13.08 K, Metastable crystal	28.33
14.42 K, Metastable crystal	36.3
14.92 K, Metastable crystal	40.73
16.44 K, Metastable crystal	50.47
16.93 K, Metastable crystal	56.67
18.55 K, Metastable crystal	70.83
18.95 K, Metastable crystal	75.26
20 K, Crystal	79.69
20 K, Metastable crystal	88.54
20.71 K, Metastable crystal	89.43
21.09 K, Metastable crystal	93.86
22.99 K, Metastable crystal	110.68
23.34 K, Metastable crystal	113.34
25 K, Crystal	115.11
25 K, Metastable crystal	123.96
25.34 K, Metastable crystal	130.16
25.67 K, Metastable crystal	134.59
27.78 K, Metastable crystal	148.75
28.07 K, Metastable crystal	150.52
30 K, Crystal	168.23
30 K, Metastable crystal	168.23
30.29 K, Metastable crystal	168.23
30.55 K, Metastable crystal	171.77
31.33 K, Metastable crystal	184.17
31.83 K, Metastable crystal	196.57
33.13 K, Metastable crystal	197.45
33.17 K, Metastable crystal	195.68
35 K, Crystal	203.65
35 K, Metastable crystal	212.5
35.4 K, Metastable crystal	219.59
37.51 K, Metastable crystal	236.41
39.64 K, Metastable crystal	254.12
40 K, Crystal	247.92
40 K, Metastable crystal	256.78
41.87 K, Metastable crystal	272.71
44.15 K, Metastable crystal	292.19
45 K, Crystal	292.19
45 K, Metastable crystal	301.05
46.49 K, Metastable crystal	312.56
48.88 K, Metastable crystal	332.92
50 K, Crystal	327.61
50 K, Metastable crystal	345.32
51.31 K, Metastable crystal	350.63
53.78 K, Metastable crystal	370.11
55 K, Crystal	371.88
55 K, Metastable crystal	380.74
56.3 K, Metastable crystal	393.13
58.84 K, Metastable crystal	412.61
60 K, Crystal	407.3
60 K, Metastable crystal	416.15
61.42 K, Metastable crystal	425.89
65 K, Crystal	442.72
65 K, Metastable crystal	451.57
66.67 K, Metastable crystal	466.62
69.33 K, Metastable crystal	480.79
70 K, Crystal	469.28
70 K, Metastable crystal	486.99
72.01 K, Metastable crystal	500.27
74.71 K, Metastable crystal	516.21
75 K, Crystal	504.7
75 K, Metastable crystal	522.4
77.43 K, Metastable crystal	531.26
80 K, Crystal	531.26
80 K, Metastable crystal	548.97
80.16 K, Metastable crystal	548.08
82.91 K, Metastable crystal	563.13
85 K, Crystal	557.82
85 K, Metastable crystal	575.53
85.67 K, Metastable crystal	580.84
88.45 K, Metastable crystal	595.01
90 K, Crystal	584.39
90 K, Metastable crystal	602.09
91.24 K, Metastable crystal	610.06
94.03 K, Metastable crystal	625.12
95 K, Crystal	610.95
95 K, Metastable crystal	628.66
96.84 K, Metastable crystal	639.28
99.66 K, Metastable crystal	654.33
100 K, Crystal	637.51
100 K, Metastable crystal	655.22
100.5 K, Metastable crystal	656.99
103.85 K, Metastable crystal	678.24
105 K, Crystal	655.22
105 K, Metastable crystal	681.78
106.65 K, Metastable crystal	689.75
109.51 K, Metastable crystal	701.26
110 K, Crystal	672.93
110 K, Metastable crystal	708.35
112.39 K, Metastable crystal	714.54
115.27 K, Metastable crystal	726.94
118.14 K, Metastable crystal	740.22
120 K, Crystal	717.2
120 K, Metastable crystal	752.62
121.03 K, Metastable crystal	753.5
123.91 K, Metastable crystal	765.9
126.79 K, Metastable crystal	778.29
129.68 K, Metastable crystal	792.46
130 K, Crystal	761.47
130 K, Metastable crystal	796.89
132.57 K, Metastable crystal	805.74
135.47 K, Metastable crystal	812.83
138.36 K, Metastable crystal	826.99
140 K, Crystal	788.03
140 K, Metastable crystal	832.31
141.26 K, Metastable crystal	842.93
144.16 K, Metastable crystal	850.01
147.07 K, Metastable crystal	864.18
149.97 K, Metastable crystal	875.69
150 K, Crystal	823.45
150 K, Metastable crystal	876.58
152.88 K, Metastable crystal	887.2
155.78 K, Metastable crystal	906.68
158.69 K, Metastable crystal	917.31
160 K, Crystal	867.72
160 K, Metastable crystal	920.85
161.6 K, Metastable crystal	932.36
164.51 K, Metastable crystal	946.53
167.42 K, Metastable crystal	962.46
170 K, Crystal	912
170 K, Metastable crystal	973.98
170.34 K, Metastable crystal	977.52
176.16 K, Metastable crystal	1009.4
179.08 K, Metastable crystal	1022.7
180 K, Crystal	947.41
180 K, Metastable crystal	1027.1
181.99 K, Metastable crystal	1043
184.9 K, Metastable crystal	1066.1
187.79 K, Metastable crystal	1080.2
190 K, Crystal	991.68
190 K, Metastable crystal	1097.9
190.66 K, Metastable crystal	1104.1
193.5 K, Metastable crystal	1125.4
196.32 K, Metastable crystal	1147.5
199.11 K, Metastable crystal	1169.7
200 K, Crystal	1036
200 K, Metastable crystal	1177.6
201.89 K, Metastable crystal	1191.8
204.65 K, Metastable crystal	1213.9
207.38 K, Metastable crystal	1237.8
210 K, Crystal	1071.4
210 K, Metastable crystal	1257.3
210.1 K, Metastable crystal	1260
212.79 K, Metastable crystal	1280.3
215.47 K, Metastable crystal	1303.4
218.13 K, Metastable crystal	1322.8
220 K, Crystal	1115.6
220 K, Metastable crystal	1337
220.78 K, Metastable crystal	1343.2
223.41 K, Metastable crystal	1362.7
226.02 K, Metastable crystal	1384.8
228.62 K, Metastable crystal	1405.2
230 K, Crystal	1159.9
230 K, Metastable crystal	1416.7
231.2 K, Metastable crystal	1423.8
233.77 K, Metastable crystal	1443.3
236.32 K, Metastable crystal	1463.6
238.87 K, Metastable crystal	1484
240 K, Crystal	1213
240 K, Metastable crystal	1496.4
241.4 K, Metastable crystal	1503.5
243.91 K, Metastable crystal	1523.8
246.41 K, Metastable crystal	1545.1
248.9 K, Metastable crystal	1565.4
250 K, Crystal	1266.2
250 K, Metastable crystal	1576.1
251.38 K, Metastable crystal	1586.7
253.84 K, Metastable crystal	1607.9
256.3 K, Metastable crystal	1629.2
258.74 K, Metastable crystal	1653.1
260 K, Crystal	1319.3
260 K, Metastable crystal	1664.6
261.18 K, Metastable crystal	1675.2
263.6 K, Metastable crystal	1697.4
266.01 K, Metastable crystal	1717.7
268.41 K, Metastable crystal	1732.8
270 K, Crystal	1390.1
270 K, Metastable crystal	1744.3
270.81 K, Metastable crystal	1742.5
273.2 K, Metastable crystal	1738.1
280 K, Crystal	1469.8
280 K, Metastable crystal	1815.1
288 K, Crystal	1549.5
288 K, Metastable crystal	1886
290 K, Crystal	1558.4
298.15 K, Crystal	1646.9
300 K, Crystal	1673.5
310 K, Crystal	1762
314.83 K, Crystal	1806.3
314.83 K, Liquid	1877.1
317.71 K, Liquid	1884.2
318.99 K, Liquid	1886.9
320 K, Liquid	1894.8
320.03 K, Liquid	1891.3
321 K, Liquid	1895.7
322.34 K, Liquid	1893.9
323.01 K, Liquid	1896.6
324.66 K, Liquid	1901.9
325.03 K, Liquid	1902.8
326.98 K, Liquid	1907.2
327.05 K, Liquid	1906.3
329.07 K, Liquid	1911.6
329.29 K, Liquid	1913.4
330 K, Liquid	1912.5
331.09 K, Liquid	1916.1
331.61 K, Liquid	1918.7
333.11 K, Liquid	1918.7
333.92 K, Liquid	1922.3
335.13 K, Liquid	1922.3
336.24 K, Liquid	1926.7
337.15 K, Liquid	1926.7
338.55 K, Liquid	1932.9
339.17 K, Liquid	1933.8
340.87 K, Liquid	1940.9
343.19 K, Liquid	1946.2
345.51 K, Liquid	1950.6
347.83 K, Liquid	1954.1
350.15 K, Liquid	1963

Crystal
Conditions	molar heat capacity at constant pressure [J/K/mol]
10.52 K	3.542
11.9 K	8.854
12.76 K	23.91
14.41 K	29.22
16.16 K	44.27
17.98 K	59.32
19.96 K	75.26
22.02 K	93.86
24.22 K	111.56
26.5 K	130.16
28.88 K	149.64
35.94 K	215.16
38.34 K	255
40.46 K	267.4
42.73 K	264.74
45.11 K	290.42
47.47 K	311.67
49.86 K	329.38
52.29 K	347.97
54.77 K	367.45
57.28 K	389.59
59.83 K	409.07
62.4 K	409.96
65.01 K	435.63
67.64 K	457.77
70.3 K	473.71
72.97 K	489.64
75.67 K	503.81
78.39 K	521.52
81.12 K	535.69
83.86 K	550.74
86.62 K	565.79
89.39 K	580.84
92.18 K	595.01
95.56 K	609.18
99.01 K	629.54
104.65 K	654.33
107.48 K	666.73
110.32 K	677.36
113.16 K	689.75
116 K	701.26
118.85 K	713.66
121.7 K	725.17
124.56 K	734.02
127.41 K	742.88
130.27 K	758.82
133.13 K	766.78
135.99 K	775.64
138.85 K	786.26
141.71 K	796
144.57 K	804.86
147.42 K	815.48
150.23 K	826.99
153.02 K	837.62
155.77 K	850.01
158.51 K	861.53
161.21 K	871.27
163.89 K	883.66
166.55 K	893.4
169.18 K	904.91
171.79 K	914.65
174.38 K	927.05
176.95 K	936.79
179.5 K	947.41
182.03 K	958.04
184.54 K	970.43
187.03 K	978.4
189.51 K	989.03
191.97 K	998.77
194.42 K	1008.5
196.84 K	1020
199.25 K	1028.9
201.65 K	1037.7
206.39 K	1058.1
208.74 K	1067.8
211.08 K	1077.6
213.41 K	1087.3
215.72 K	1097.9
218.01 K	1108.6
220.3 K	1117.4
222.57 K	1127.2
224.83 K	1137.8
227.07 K	1149.3
229.31 K	1160.8
231.53 K	1169.7
233.74 K	1180.3
235.94 K	1190.9
238.13 K	1201.5
240.31 K	1212.2
242.48 K	1222.8
244.64 K	1235.2
246.79 K	1245.8
248.93 K	1256.4
251.06 K	1268.8
253.19 K	1279.4
255.3 K	1292.7
257.41 K	1305.1
259.5 K	1320.2
261.59 K	1332.6
263.67 K	1345.9
265.75 K	1360.9
267.81 K	1374.2
269.86 K	1389.2
271.91 K	1403.4
273.95 K	1419.3
275.98 K	1437.9
278 K	1454.8
280.02 K	1471.6
282.03 K	1489.3
284.04 K	1509.7
288.03 K	1543.3
290.02 K	1560.1
292 K	1580.5
293.98 K	1601.7
295.95 K	1622.1
297.92 K	1646.9
299.88 K	1669.9
301.84 K	1708.9
303.79 K	1742.5
305.74 K	1795.7
307.67 K	1890.4
309.58 K	2118.8

From the NIST ThermoML archive (doi:10.1021/je034048e)
